This note sets out measurements from patent publication US12590126B2, “Compounds for selective disruption of protein-protein interactions” (SyntheX, Inc., priority 2017, dated 2026).

Where a SMILES comes first, the peptide text is derived from it. Where no end group is shown, it is not given here. [ ]: non-standard residue; d: D form. The star is where a group is joined. C6_5FAM = 5-carboxyfluorescein (5FAM) label attached via a 6-carbon linker to the lysine epsilon amino group, O=C(NCCCCCC(=O)*)c1ccc2c(c1)C(=O)OC21c2ccc(O)cc2Oc2cc(O)ccc21; Dansyl = CN(C)c1cccc2c(S(=O)(=O)*)cccc12; 2Nal = N[C@@H](Cc1ccc2ccccc2c1)C(=O)O; dNle = CCCC[C@@H](N)C(=O)O; Sar = CNCC(=O)O

One data set has as its system fresh human RBCs.
Experiment: not given
The conditions noted are these: red cells of human, 1 h, 250. In kind it is cell-based. As to the method: To assess the nonspecific lytic properties of each compounds disclosed herein, each mentioned compound was tested for hemolytic properties against fresh human RBCs. Briefly, donor blood was drawn into a K2EDTA anticoagulant tube from multiple O+ donors. The blood was washed 3 times in PBS. RBCs were diluted to 2% in PBS and compounds were added at various concentrations. Samples were incubated at 37 C for 1 hr, then centrifuged at 2200 rpm for 5 min. Supernatants were measured for absorbance at 450 nm or 405 nm. The percentage hemolysis was calculated as lysis relative to 1% Triton X-100 incubation.
Turning to `CCCC[C@@H](NC(=O)[C@@H](CC(C)C)NC(=O)CN(C)S(=O)(=O)c1cccc2c(N(C)C)cccc12)C(=O)N[C@H](CCCNC(=N)N)C(=O)N[C@H](CO)C(=O)N[C@@H](C(=O)N[C@H](CCCNC(=N)N)C(=O)N[C@H](CC(C)C)C(=O)N[C@H](CCCNC(=N)N)C(=O)N[C@@H](C(=O)NCC(=O)N[C@H](CC(C)C)C(=O)N[C@H](CCCNC(=N)N)C(=O)N[C@H](CCCCN)C(=O)N[C@H](CCCNC(=N)N)C(=O)N[C@H](CCCNC(=N)N)C(=O)N[C@H](CCCNC(=N)N)C(=O)N[C@H](CCCNC(=N)N)C(=O)N[C@H](CCCNC(=N)N)C(N)=O)C(C)C)C(C)C` [Compound 19, DANSYL-Sarcosine-l{d-norLeucine}rsvrlrvGlrkrrrrr-NH2] (Dansyl-[Sar][dL][dNle][dR][dS][dV][dR][dL][dR][dV]G[dL][dR][dK][dR][dR][dR][dR][dR]-NH2), the “% Hemolysis (250 uM)” value was found to be 86%.

A further data set relates to SSP-25 cells. In words: xCELLigence cell death assay in SSP-25 cells (cellular assay for RAD51 inhibition). The class given is cell-based. Conditions: concentration gradient added at 20 hour mark, only values with R^>0.85 shown. As to the method: The efficacy of the peptides described herein was assessed by their ability to cause death in SSP-25 cells, which have amplification of RAD51 and are dependent on its activity.
First, 5,000 SSP25 cells were plated, and adherence and growth was measured for 20 hours using live measurements of current impedance through the plate using the xCELLigence™ instrument. At the 20 hour mark, a concentration gradient of each compound or a PBS control was added to the SSP-25 cells, which were cultured in […] RMPI media with 10% FBS. […] Only values with confidence and R^>0.85 are shown.
For orientation: IC50 means the point on the concentration scale where inhibition reaches its midpoint. High values mean weaker potency in that assay, low ones greater potency in that assay. For “Ac-lmrsvrlrvGlrkaG: : : (cFΦR4) (Ac-[dL][dM][dR][dS][dV][dR][dL][dR][dV]G[dL][dR][dK][dA]GF[2Nal]RRRRQ; not fully specified (bridges); printed as Ac-lmrsvrlrvGlrkaG: : : (cFΦR4); also: core joined by ':::' to cyclo(FΦRRRRQ), junction not defined) [Compound 3]”, half-maximal inhibition (IC50) was put at 7.3 µM.

“Ac-lmrsvrlrvGlrkrrrrrrrk(C6_5FAM)-NH2 (Ac-[dL][dM][dR][dS][dV][dR][dL][dR][dV]G[dL][dR][dK][dR][dR][dR][dR][dR][dR][dR][dK](C6_5FAM)-NH2; SMILES CSCC[C@@H](NC(=O)[C@@H](CC(C)C)NC(C)=O)C(=O)N[C@H](CCCNC(=N)N)C(=O)N[C@H](CO)C(=O)N[C@@H](C(=O)N[C@H](CCCNC(=N)N)C(=O)N[C@H](CC(C)C)C(=O)N[C@H](CCCNC(=N)N)C(=O)N[C@@H](C(=O)NCC(=O)N[C@H](CC(C)C)C(=O)N[C@H](CCCNC(=N)N)C(=O)N[C@H](CCCCN)C(=O)N[C@H](CCCNC(=N)N)C(=O)N[C@H](CCCNC(=N)N)C(=O)N[C@H](CCCNC(=N)N)C(=O)N[C@H](CCCNC(=N)N)C(=O)N[C@H](CCCNC(=N)N)C(=O)N[C@H](CCCNC(=N)N)C(=O)N[C@H](CCCNC(=N)N)C(=O)N[C@H](CCCCNC(=O)CCCCCNC(=O)c1ccc2c(c1)C(=O)OC21c2ccc(O)cc2Oc2cc(O)ccc21)C(N)=O)C(C)C)C(C)C) [Compound 13]” registered a concentration for half-maximal inhibition (IC50) of 10 µM.

With “Ac-lmrsvrlrvGlrr-NH2 (Ac-[dL][dM][dR][dS][dV][dR][dL][dR][dV]G[dL][dR][dR]-NH2; SMILES CSCC[C@@H](NC(=O)[C@@H](CC(C)C)NC(C)=O)C(=O)N[C@H](CCCNC(=N)N)C(=O)N[C@H](CO)C(=O)N[C@@H](C(=O)N[C@H](CCCNC(=N)N)C(=O)N[C@H](CC(C)C)C(=O)N[C@H](CCCNC(=N)N)C(=O)N[C@@H](C(=O)NCC(=O)N[C@H](CC(C)C)C(=O)N[C@H](CCCNC(=N)N)C(=O)N[C@H](CCCNC(=N)N)C(N)=O)C(C)C)C(C)C) [Compound 4]”, the IC50 was determined as 67 µM.

As to “Ac-lvrsvGlrrrrrrrr-NH2 (Ac-[dL][dV][dR][dS][dV]G[dL][dR][dR][dR][dR][dR][dR][dR][dR]-NH2; SMILES CC(=O)N[C@H](CC(C)C)C(=O)N[C@@H](C(=O)N[C@H](CCCNC(=N)N)C(=O)N[C@H](CO)C(=O)N[C@@H](C(=O)NCC(=O)N[C@H](CC(C)C)C(=O)N[C@H](CCCNC(=N)N)C(=O)N[C@H](CCCNC(=N)N)C(=O)N[C@H](CCCNC(=N)N)C(=O)N[C@H](CCCNC(=N)N)C(=O)N[C@H](CCCNC(=N)N)C(=O)N[C@H](CCCNC(=N)N)C(=O)N[C@H](CCCNC(=N)N)C(=O)N[C@H](CCCNC(=N)N)C(N)=O)C(C)C)C(C)C) [Compound 5]”, the 50% inhibitory concentration (IC50) was 35 µM.

“Ac-l{d-norLeucine}rGvrlrvGlrkrrrrGy-NH2 (Ac-[dL][dNle][dR]G[dV][dR][dL][dR][dV]G[dL][dR][dK][dR][dR][dR][dR]G[dY]-NH2; SMILES CCCC[C@@H](NC(=O)[C@@H](CC(C)C)NC(C)=O)C(=O)N[C@H](CCCNC(=N)N)C(=O)NCC(=O)N[C@@H](C(=O)N[C@H](CCCNC(=N)N)C(=O)N[C@H](CC(C)C)C(=O)N[C@H](CCCNC(=N)N)C(=O)N[C@@H](C(=O)NCC(=O)N[C@H](CC(C)C)C(=O)N[C@H](CCCNC(=N)N)C(=O)N[C@H](CCCCN)C(=O)N[C@H](CCCNC(=N)N)C(=O)N[C@H](CCCNC(=N)N)C(=O)N[C@H](CCCNC(=N)N)C(=O)N[C@H](CCCNC(=N)N)C(=O)NCC(=O)N[C@H](Cc1ccc(O)cc1)C(N)=O)C(C)C)C(C)C) [Compound 11]” registered a half-maximal inhibitory concentration (IC50) of 9 µM.

In the case of “Ac-l{d-norLeucine}rGvrlrvGlrkrrrrrGΦ-NH2 (Ac-[dL][dNle][dR]G[dV][dR][dL][dR][dV]G[dL][dR][dK][dR][dR][dR][dR][dR]G[2Nal]-NH2; SMILES CCCC[C@@H](NC(=O)[C@@H](CC(C)C)NC(C)=O)C(=O)N[C@H](CCCNC(=N)N)C(=O)NCC(=O)N[C@@H](C(=O)N[C@H](CCCNC(=N)N)C(=O)N[C@H](CC(C)C)C(=O)N[C@H](CCCNC(=N)N)C(=O)N[C@@H](C(=O)NCC(=O)N[C@H](CC(C)C)C(=O)N[C@H](CCCNC(=N)N)C(=O)N[C@H](CCCCN)C(=O)N[C@H](CCCNC(=N)N)C(=O)N[C@H](CCCNC(=N)N)C(=O)N[C@H](CCCNC(=N)N)C(=O)N[C@H](CCCNC(=N)N)C(=O)N[C@H](CCCNC(=N)N)C(=O)NCC(=O)N[C@@H](Cc1ccc2ccccc2c1)C(N)=O)C(C)C)C(C)C) [Compound 12]”, the midpoint of inhibition, the IC50, lay at 17 µM.

Turning to “Ac-l{d-norLeucine}rGvrlrvGlrkrrrrrrr-NH2 (Ac-[dL][dNle][dR]G[dV][dR][dL][dR][dV]G[dL][dR][dK][dR][dR][dR][dR][dR][dR][dR]-NH2; SMILES CCCC[C@@H](NC(=O)[C@@H](CC(C)C)NC(C)=O)C(=O)N[C@H](CCCNC(=N)N)C(=O)NCC(=O)N[C@@H](C(=O)N[C@H](CCCNC(=N)N)C(=O)N[C@H](CC(C)C)C(=O)N[C@H](CCCNC(=N)N)C(=O)N[C@@H](C(=O)NCC(=O)N[C@H](CC(C)C)C(=O)N[C@H](CCCNC(=N)N)C(=O)N[C@H](CCCCN)C(=O)N[C@H](CCCNC(=N)N)C(=O)N[C@H](CCCNC(=N)N)C(=O)N[C@H](CCCNC(=N)N)C(=O)N[C@H](CCCNC(=N)N)C(=O)N[C@H](CCCNC(=N)N)C(=O)N[C@H](CCCNC(=N)N)C(=O)N[C@H](CCCNC(=N)N)C(N)=O)C(C)C)C(C)C) [Compound 10]”, 13 µM corresponded to half-maximal inhibition (IC50).

Molecule “Ac-l{d-norLeucine}rsrrlvrGlrkrrrrrGΦ-NH2 [Compound 14]” came in with an IC50 of 3500 µM.

In turn, “Ac-l{d-norLeucine}rsvrlr[d-norLeucine]GlrkrrrrrGΦ-NH2 (Ac-[dL][dNle][dR][dS][dV][dR][dL][dR][dNle]G[dL][dR][dK][dR][dR][dR][dR][dR]G[2Nal]-NH2; SMILES CCCC[C@@H](NC(=O)[C@@H](CCCNC(=N)N)NC(=O)[C@@H](CC(C)C)NC(=O)[C@@H](CCCNC(=N)N)NC(=O)[C@H](NC(=O)[C@@H](CO)NC(=O)[C@@H](CCCNC(=N)N)NC(=O)[C@@H](CCCC)NC(=O)[C@@H](CC(C)C)NC(C)=O)C(C)C)C(=O)NCC(=O)N[C@H](CC(C)C)C(=O)N[C@H](CCCNC(=N)N)C(=O)N[C@H](CCCCN)C(=O)N[C@H](CCCNC(=N)N)C(=O)N[C@H](CCCNC(=N)N)C(=O)N[C@H](CCCNC(=N)N)C(=O)N[C@H](CCCNC(=N)N)C(=O)N[C@H](CCCNC(=N)N)C(=O)NCC(=O)N[C@@H](Cc1ccc2ccccc2c1)C(N)=O) [Compound 16]” yielded an IC50 of 43 µM.

“Ac-l{d-norLeucine}rsvrlrvGlrkrrrrrrr-NH2 (Ac-[dL][dNle][dR][dS][dV][dR][dL][dR][dV]G[dL][dR][dK][dR][dR][dR][dR][dR][dR][dR]-NH2; SMILES CCCC[C@@H](NC(=O)[C@@H](CC(C)C)NC(C)=O)C(=O)N[C@H](CCCNC(=N)N)C(=O)N[C@H](CO)C(=O)N[C@@H](C(=O)N[C@H](CCCNC(=N)N)C(=O)N[C@H](CC(C)C)C(=O)N[C@H](CCCNC(=N)N)C(=O)N[C@@H](C(=O)NCC(=O)N[C@H](CC(C)C)C(=O)N[C@H](CCCNC(=N)N)C(=O)N[C@H](CCCCN)C(=O)N[C@H](CCCNC(=N)N)C(=O)N[C@H](CCCNC(=N)N)C(=O)N[C@H](CCCNC(=N)N)C(=O)N[C@H](CCCNC(=N)N)C(=O)N[C@H](CCCNC(=N)N)C(=O)N[C@H](CCCNC(=N)N)C(=O)N[C@H](CCCNC(=N)N)C(N)=O)C(C)C)C(C)C) [Compound 9]” gave an IC50 of 20 µM.

Molecule “Ac-rrrrrraGphlrkvralrslGlrlaq-NH2 (Ac-[dR][dR][dR][dR][dR][dR][dA]G[dP][dH][dL][dR][dK][dV][dR][dA][dL][dR][dS][dL]G[dL][dR][dL][dA][dQ]-NH2; SMILES CC(=O)N[C@H](CCCNC(=N)N)C(=O)N[C@H](CCCNC(=N)N)C(=O)N[C@H](CCCNC(=N)N)C(=O)N[C@H](CCCNC(=N)N)C(=O)N[C@H](CCCNC(=N)N)C(=O)N[C@H](CCCNC(=N)N)C(=O)N[C@H](C)C(=O)NCC(=O)N1CCC[C@@H]1C(=O)N[C@H](Cc1c[nH]cn1)C(=O)N[C@H](CC(C)C)C(=O)N[C@H](CCCNC(=N)N)C(=O)N[C@H](CCCCN)C(=O)N[C@@H](C(=O)N[C@H](CCCNC(=N)N)C(=O)N[C@H](C)C(=O)N[C@H](CC(C)C)C(=O)N[C@H](CCCNC(=N)N)C(=O)N[C@H](CO)C(=O)N[C@H](CC(C)C)C(=O)NCC(=O)N[C@H](CC(C)C)C(=O)N[C@H](CCCNC(=N)N)C(=O)N[C@H](CC(C)C)C(=O)N[C@H](C)C(=O)N[C@H](CCC(N)=O)C(N)=O)C(C)C) [Compound 6]” yielded a half-maximal inhibitory concentration (IC50) of 417 µM.
